Reference: ChEMBL document CHEMBL1141718, “Design, synthesis and antiproliferative activity of two new heteroannelated (-)-muricatacin mimics” (Bioorg Med Chem Lett, 2008)

Columns and labels:
MRC5 = assay: Antiproliferative activity against human MRC5 cells after 72 hrs by MTT assay; assay type: cell-based; details: MRC5, 72 h
HL-60 = assay: Antiproliferative activity against human HL60 cells after 72 hrs by MTT assay; assay type: functional, cell-based; details: HL-60, 72 h
K562 = assay: Antiproliferative activity against human K562 cells after 72 hrs by MTT assay; assay type: functional, cell-based; details: K562, 72 h
HeLa = assay: Antiproliferative activity against human HeLa cells after 72 hrs by MTT assay; assay type: functional, cell-based
Jurkat = assay: Antiproliferative activity against human Jurkat cells after 72 hrs by MTT assay; assay type: functional, cell-based

Compound | IC50 (MRC5) [µM] | IC50 (HL-60) [µM] | IC50 (K562) [µM] | IC50 (HeLa) [µM] | IC50 (Jurkat) [µM]
CCCCCCCCCCCC[C@@H](O)[C@H]1CCC(=O)O1 | > 100 | 25.9 | 0.04 | 0.17 | > 100
CCCCCCCCCCOC[C@@H](O)[C@H]1CCC(=O)O1 | > 100 | 0.15 | 0.13 | 21.4 | 3.01
CCCCCCCCCCOC[C@@H]1O[C@H]2CC(=O)O[C@H]2[C@@H]1O | > 100 | 0.14 | 1.25 | 0.3 | > 100
CCCCCCCCCOC[C@@H]1O[C@H]2CC(=O)O[C@H]2[C@@H]1O | > 100 | 1.53 | 8.61 | 9.59 | 6.64
